Reference: patent US20170326188A1, “USES OF PORIA COCOS EPIDERMIS EXTRACT, PORICOIC ACID A, AND PORICOIC ACID B IN REGULATING BLOOD GLUCOSE LEVEL” (SINPHAR PHARMACEUTICAL CO., LTD., priority 2016, published 2017)

Columns and labels:
[1] = test system: mouse adipocytes (3T3-L1); test: Glucose oxidase assay of glucose uptake capability of adipocytes; type: cell-based; settings: 2 hours; for relative glucose uptake capability of cells (glucose consumption) compared to the control group: 3T3-L1 cells, 0.1, 1 or 10 μg/ml, BSA-DMEM medium containing 500 μg/ml glucose
Experimental: The differentiated mouse myocytes (C2C12, purchased from ATCC) and adipocytes (3T3-L1, purchased from ATCC) were cultivated in a Dulbecco's modified Eagle's medium (DMEM) containing 2% bovine serum albumin (BSA) but serum free for 16 hours respectively. Then, the cells were washed with Dulbecco's phosphate-buffered saline (D-PBS), and medium was replaced with a 0.2% BSA-DMEM medium containing 500 μg/ml glucose. The cells thus provided were used in the following experiments. 3T3-L1 cells provided by [Preparation Examples] were divided into 5 groups and were respectively cultivated with the mediums of Groups I to V described in Example 1 (1-1) for 2 hours. Then, the content of glucose in the medium of each group were determined by a glucose oxidase assay to measure the level of glucose consumption of each group (representing the glucose uptake capability of cells). Finally, the results of the control group (i.e., cells being cultivated with the medium of Group I) was served as a basis to calculate the relative glucose uptake capabilities of other groups. 3T3-L1 cells provided by [Preparation Examples] were divided into 8 groups and were respectively cultivated with the mediums of Groups i to v as described in Example 2 (2-1) for 2 hours. Then, the content of glucose in the medium of each group was determined by a glucose oxidase assay to measure the level of glucose consumption of each group (representing the glucose uptake capability of cells). Finally, the results of the control group (i.e., cells being cultivated with the medium of Group i) was served as a basis to calculate the relative glucose uptake capabilities of other groups. FIG. 4A comprises the results of the control group, the positive control group (i.e., cells being cultivated with the medium of Group ii), and the groups being treated with poricoic acid A (i.e., cells being cultivated with the medium of Group iii, iv or v which contains poricoic acid A). FIG. 4B comprises the results of the control group, the positive control group, and the group being treated with poricoic acid B (i.e., cells being cultivated with the medium of Group iii, iv or v which contains poricoic acid B).

mouse myocytes (C2C12) = test: Glucose oxidase assay of glucose uptake capability of myocytes; type: cell-based; settings: C2C12 cells, 0.1, 1 or 10 μg/ml, 2 hours; for relative glucose uptake capability of cells (glucose consumption) compared to the control group: BSA-DMEM medium containing 500 μg/ml glucose
Experimental: The differentiated mouse myocytes (C2C12, purchased from ATCC) and adipocytes (3T3-L1, purchased from ATCC) were cultivated in a Dulbecco's modified Eagle's medium (DMEM) containing 2% bovine serum albumin (BSA) but serum free for 16 hours respectively. Then, the cells were washed with Dulbecco's phosphate-buffered saline (D-PBS), and medium was replaced with a 0.2% BSA-DMEM medium containing 500 μg/ml glucose. The cells thus provided were used in the following experiments. C2C12 cells provided by [Preparation Examples] were divided into 5 groups and were respectively cultivated with the following mediums for 2 hours: • 1. Group I: a BSA-DMEM medium containing 500 μg/ml glucose. • 2. Group II: a BSA-DMEM medium containing 500 μg/ml glucose and 100 nM insulin. • 3. Group III: a BSA-DMEM medium containing 500 μg/ml glucose and 0.1 μg/ml Poria cocos epidermis extract provided by [Preparation Example A-2]. • 4. Group IV: a BSA-DMEM medium containing 500 μg/ml glucose and 1 μg/ml Poria cocos epidermis extract provided by [Preparation Example A-2]. • 5. Group V: a BSA-DMEM medium containing 500 μg/ml glucose and 10 μg/ml Poria cocos epidermis extract provided by [Preparation Example A-2]. Thereafter, the content of glucose in the medium of each group was determined by a glucose oxidase assay to measure the level of glucose consumption (representing the glucose uptake capability of cells) of each group. Finally, the results of the control group (i.e., cells being cultivated with the medium of Group I) was served as a basis to calculate the relative glucose uptake capabilities of other groups. C2C12 cells provided by [Preparation Examples] were divided into 8 groups and were respectively cultivated with the following mediums for 2 hours: • 1. Group i: a BSA-DMEM medium containing 500 μg/ml glucose. • 2. […] Then, the content of glucose in the medium of each group was determined by a glucose oxidase assay to measure the level of glucose consumption of each group (representing the glucose uptake capability of cells). […]

Compound	relative glucose uptake capability of cells (glucose consumption) compared to the control group [1]	relative glucose uptake capability of cells (glucose consumption) compared to the control group (mouse myocytes (C2C12))	increment in glucose uptake capability compared to the control group, medium dosage group ([1]; 3T3-L1 cells, 1 μg/ml)	increment in glucose uptake capability compared to the control group, high dosage group ([1]; 3T3-L1 cells, 10 μg/ml)	glucose uptake capability compared to the positive control group (mouse myocytes (C2C12); positive control 100 nM insulin)
C=C(C)[C@@H]1CC=C2C(=CC[C@]3(C)[C@@H]([C@@H](CCC=C(C)C)C(=O)O)[C@H](O)C[C@@]23C)[C@@]1(C)CCC(=O)O [poricoic acid B, Poricoic acid B]	significantly increased	significantly increased			
C=C(CC[C@@H](C(=O)O)[C@H]1[C@H](O)C[C@@]2(C)C3=CC[C@@H](C(=C)C)[C@](C)(CCC(=O)O)C3=CC[C@]12C)C(C)C [poricoic acid A, Poricoic acid A]	exhibited an increment in the glucose uptake capabilities	significantly increased	significant	significant	equivalent to that of the positive control group
